Consider ten compounds from patent publication US7514445B2, “Heteroaryl amines as glycogen synthase kinase 3β inhibitors (GSK3 inhibitors)” (Janssen Pharmaceutica N.V., priority 2001, dated 2009).

SMILES strings stand for the structures.

The IC50 is the concentration that gives 50% inhibition.

GSK3β, sequence (P49841 whole entry, species assumed): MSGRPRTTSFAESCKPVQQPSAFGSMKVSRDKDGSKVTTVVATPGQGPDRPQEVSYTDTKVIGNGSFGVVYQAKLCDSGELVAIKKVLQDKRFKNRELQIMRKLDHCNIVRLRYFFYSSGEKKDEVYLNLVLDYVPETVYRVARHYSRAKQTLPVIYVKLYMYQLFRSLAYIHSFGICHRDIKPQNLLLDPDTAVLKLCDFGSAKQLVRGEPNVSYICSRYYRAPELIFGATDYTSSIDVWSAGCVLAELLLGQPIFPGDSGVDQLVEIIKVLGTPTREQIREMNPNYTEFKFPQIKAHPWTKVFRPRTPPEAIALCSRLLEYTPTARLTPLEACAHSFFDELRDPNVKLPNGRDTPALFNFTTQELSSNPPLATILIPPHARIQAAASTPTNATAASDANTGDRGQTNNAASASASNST

The target in the test is GSK3β (Homo sapiens, UniProt P49841). Nature of the test: GSK3beta assay (SPA, phosphorylation of biotinylated phosphorylated CREB peptide, ATP-P33). The test is classed as biochemical. As to conditions: -log IC50 (M); 25° C., 19 nM GSK3β, 5 μM biotinylated phosphorylated CREB peptide, 1 μM ATP, one hour. The method, then:
GSK3beta assays were performed at 25° C. in a 100 μl reaction volume of 25 mM Tris (pH 7.4) containing 10 mM MgCl2, 1 mM DTT, 0.1 mg/ml BSA, 5% glycerol and containing 19 nM GSK3β, 5 μM biotinylated phosphorylated CREB peptide, 1 μM ATP, 2 nM ATP-P^33 and a suitable amount of a test compound of formula (I) or (I′). After one hour, the reaction was terminated by adding 70 μl of Stop mix (1 mM ATP, 18 mg/ml streptavidin coated PVT SPA bead pH 11.0). The beads to which the phosphorylated CREB peptide is attached were allowed to settle for 30 minutes and the radioactivity of the beads was counted in a microtiterplate scintillation counter and compared with the results obtained in a control experiment (without the presence of a test compound) in order to determine the percentage of GSK3β, inhibition. The IC50 value, i.e. the concentration (M) of the test compound at which 50% of GSK3, is inhibited, was calculated from the dose response curve obtained by performing the above-described GSK3β assay in the presence of different amounts of the test compound.
Table 5 lists pIC50 values (-log IC50 (M)) obtained in the above-described test for the present compounds.
On to `Cc1cc(C)c(Nc2ccnc(Nc3ccc4[nH]ncc4c3)n2)c(C)c1` [Compound 2, N^2-(1H-indazol-5-yl)-N^4-(2,4,6-trimethylphenyl)-2,4-pyrimidinediamine], for which the IC50 is 5.25e-07 M. Then `N#Cc1ccc(Nc2nccc(C(=O)N3CCNCC3)n2)cc1OCc1ccccc1` [Compound 4], with 2.95e-06 M. Under `Cn1ccnc1-c1ccnc(Nc2ccc(C#N)c(OCc3ccccc3)c2)n1` [Compound 6, 4-[[4-(1-methyl-1H-imidazol-2-yl)-2-pyrimidinyl]amino]-2-(phenylmethoxy)-benzonitrile] stands 9.77e-08 M; under `Cc1cc(C)c(Nc2ccnc(Nc3ccc4c(c3)OCO4)n2)c(C)c1` [Compound 17, N^2-benzo[1,3]dioxol-5-yl-N^4(2,4,6-trimethyl-phenyl)-2,4-pyrimidinediamine], 5.01e-06 M. Regarding `Cc1cc(C)c(Nc2ccnc(Nc3ccc4ncccc4c3)n2)c(C)c1` [Compound 20, N^2-quinolin-6-yl-N-4-(2,4,6-trimethyl-phenyl)-2,4-pyrimidinediamine], the IC50 was 3.63e-06 M. Under `N#Cc1ccc(Nc2nccc(NCc3cccs3)n2)cc1` [Compound 22, 4-[4-[(thiophen-2-ylmethyl)-amino]-pyrimidin-2-ylamino]-benzonitrile] stands 1.82e-06 M; under `CC1(C)OCC(CNc2ccnc(Nc3ccc(C#N)cc3)n2)O1` (stereo not shown) [Compound 24], 4.37e-06 M; under `CCN1CCCC1CNc1ccnc(Nc2ccc(C#N)cc2)n1` (stereo not shown) [Compound 25], 1.91e-06 M. Under `N#Cc1ccc(Nc2nccc(NCc3ccco3)n2)cc1` [Compound 26, 4-[4-[(furan-2-ylmethyl)-amino]-pyrimidin-2-ylamino]-benzonitrile] stands 1.55e-06 M.

`Cn1ccnc1-c1ccnc(Nc2ccc(C#N)cc2)n1` [Compound 33, 4-[[4-(1-methyl-1H-imidazol-2-yl)-2-pyrimidinyl]amino]-benzonitrile]: it took 7.76e-08 M to reach half-maximal inhibition (IC50).
